Assay [1] concerns the target T1, Recombinant human inducible nitric oxide synthase (hiNOS) (Homo sapiens, UniProt P35228).
T1 construct: made in house; host or cells: Sf9 insect cells (recombinant baculovirus)
Kind of assay: Citrulline Assay for Nitric Oxide Synthase (hiNOS). It counts as biochemical. As to conditions: for IC50: conversion of [3H]-arginine to [3H]-citrulline, 30 µM L-arginine, 37°C, 15 minutes. On the procedure:
(§1) Nitric oxide synthase activity was measured by monitoring the conversion of [^3H]-arginine to [^3H]-citrulline. Mouse inducible nitric oxide synthase (miNOS) was prepared from an extract of LPS-treated RAW 264.7 cells and partially purified by DEAE-Sepharose chromatography. Rat brain constitutive nitric oxide synthase (rnNOS) was prepared from an extract of rat cerebellum and partially purified by DEAE-Sepharose chromatography. Enzyme and inhibitors were incubated at 37°C for 15 minutes in a reaction volume of 100 µL with the following components added to start the reaction: 50 mM Tris (pH 7.6), 1 mg/ml bovine serum albumin, 1 mM DTT, 2 mM CaCl2, 10 µM FAD, 10 µM tetrahydrobiopterin, 30 µM L-arginine containing L-[2,3-^3H]-arginine at 300 cpm/pmole and 1 mM NADPH. For constitutive NOS, 50 nM calmodulin was also added. The reaction was terminated by addition of cold stop buffer containing 10 mM EGTA, 100 mM HEPES, pH 5.5 and 1 mM citrulline. [^3H]-Citrulline was separated by chromatography on Dowex 50W X-8 cation exchange resin and radioactivity determined with a liquid scintillation counter.
Recombinant human inducible nitric oxide synthase (hiNOS) was extracted from Sf9 insect cells (infected with recombinant baculoviruses encoding a cDNA for human inducible nitric oxide synthase which has been isolated and purified from a lambda Zapll cDNA library made from RNA isolated from a colon sample from a patient with ulcerative colitis) and partially purified by DEAE-chromatography.

For assay [2], the target named is T2, Mouse inducible nitric oxide synthase (miNOS) (Mus musculus, UniProt P29477).
T2 construct: prepared from an extract of LPS-treated RAW 264.7 cells and partially purified by DEAE-Sepharose chromatography; endogenous in cells; host or cells: LPS-treated RAW 264.7 cells
The assay is described as follows: Citrulline Assay for Nitric Oxide Synthase (miNOS). Format: biochemical. The note with it: for IC50: conversion of [3H]-arginine to [3H]-citrulline, 30 µM L-arginine, 37°C, 15 minutes. Here is the method:
as §1

The target in assay [3] is T3, Rat brain constitutive nitric oxide synthase (rnNOS) (Rattus norvegicus, UniProt P29476).
T3 construct: prepared from an extract of rat cerebellum and partially purified by DEAE-Sepharose chromatography; from tissue; host or cells: rat cerebellum
Kind of assay: Citrulline Assay for Nitric Oxide Synthase (rnNOS). It counts as biochemical. As to conditions: for IC50: conversion of [3H]-arginine to [3H]-citrulline, 30 µM L-arginine, 50 nM calmodulin added. On the procedure: as §1

Another assay concerns RAW 264.7 cells. Kind of assay: Raw Cell Nitrite Assay. It counts as cell-based. As to conditions: Mus musculus, RAW264.7; for IC50: nitrite production by intracellular iNOs, LPS-induced RAW 264.7 cells, L-arginine 30 µM. On the procedure: RAW 264.7 cells are plated to confluency on a 96-well tissue culture plate grown overnight (17h) in the presence of LPS to induce NOS. A row of 3-6 wells were left untreated and served as controls for subtraction of nonspecific background. The media was removed from each well and the cells are washed twice with Krebs-Ringers-Hepes (25mM, pH 7.4) with 2 mg/ml glucose. The cells are then placed on ice and incubated with 50 µL of buffer containing L-arginine (30 µM) +/- inhibitors for lh. The assay is initiated by warming the plate to 37°C in a water bath for lh. Production of nitrite by intracellular iNOs is linear with time. To terminate the cellular assay, the plate of cells is placed on ice and the nitrite-containing buffer removed and analyzed for nitrite using a previously published fluorescent determination for nitrite. All values are the average of triplicate wells and are compared to a background-subtracted induced set of cells (100% value).

T2 sequence (P29477 whole entry): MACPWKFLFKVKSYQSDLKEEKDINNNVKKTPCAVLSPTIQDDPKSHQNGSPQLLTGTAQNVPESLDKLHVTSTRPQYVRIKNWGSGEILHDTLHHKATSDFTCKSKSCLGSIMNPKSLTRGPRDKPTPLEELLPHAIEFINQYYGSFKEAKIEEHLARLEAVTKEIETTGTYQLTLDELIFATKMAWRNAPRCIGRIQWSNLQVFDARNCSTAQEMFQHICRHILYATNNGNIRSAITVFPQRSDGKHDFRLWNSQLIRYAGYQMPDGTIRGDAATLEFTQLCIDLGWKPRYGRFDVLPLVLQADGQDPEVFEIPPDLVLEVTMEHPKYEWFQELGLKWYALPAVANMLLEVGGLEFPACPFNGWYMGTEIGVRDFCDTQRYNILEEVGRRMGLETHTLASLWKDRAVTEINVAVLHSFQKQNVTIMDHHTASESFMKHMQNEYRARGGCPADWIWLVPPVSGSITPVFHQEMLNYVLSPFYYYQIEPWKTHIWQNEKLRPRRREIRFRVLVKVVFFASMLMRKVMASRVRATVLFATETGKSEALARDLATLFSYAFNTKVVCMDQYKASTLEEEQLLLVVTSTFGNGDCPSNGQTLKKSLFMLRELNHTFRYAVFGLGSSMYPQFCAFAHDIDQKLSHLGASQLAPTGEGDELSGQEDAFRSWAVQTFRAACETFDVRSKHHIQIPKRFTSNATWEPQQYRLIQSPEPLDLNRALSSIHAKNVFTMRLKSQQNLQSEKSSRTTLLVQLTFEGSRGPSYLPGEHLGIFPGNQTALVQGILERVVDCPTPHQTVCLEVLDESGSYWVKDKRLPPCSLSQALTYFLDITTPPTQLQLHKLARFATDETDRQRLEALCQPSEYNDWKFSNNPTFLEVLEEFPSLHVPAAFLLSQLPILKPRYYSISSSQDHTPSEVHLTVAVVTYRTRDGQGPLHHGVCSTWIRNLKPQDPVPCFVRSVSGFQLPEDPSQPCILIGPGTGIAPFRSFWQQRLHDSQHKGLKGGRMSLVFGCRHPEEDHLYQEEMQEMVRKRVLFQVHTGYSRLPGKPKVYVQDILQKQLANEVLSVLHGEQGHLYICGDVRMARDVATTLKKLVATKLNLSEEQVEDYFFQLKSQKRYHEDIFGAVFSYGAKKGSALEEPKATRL
T3 sequence (P29476 whole entry): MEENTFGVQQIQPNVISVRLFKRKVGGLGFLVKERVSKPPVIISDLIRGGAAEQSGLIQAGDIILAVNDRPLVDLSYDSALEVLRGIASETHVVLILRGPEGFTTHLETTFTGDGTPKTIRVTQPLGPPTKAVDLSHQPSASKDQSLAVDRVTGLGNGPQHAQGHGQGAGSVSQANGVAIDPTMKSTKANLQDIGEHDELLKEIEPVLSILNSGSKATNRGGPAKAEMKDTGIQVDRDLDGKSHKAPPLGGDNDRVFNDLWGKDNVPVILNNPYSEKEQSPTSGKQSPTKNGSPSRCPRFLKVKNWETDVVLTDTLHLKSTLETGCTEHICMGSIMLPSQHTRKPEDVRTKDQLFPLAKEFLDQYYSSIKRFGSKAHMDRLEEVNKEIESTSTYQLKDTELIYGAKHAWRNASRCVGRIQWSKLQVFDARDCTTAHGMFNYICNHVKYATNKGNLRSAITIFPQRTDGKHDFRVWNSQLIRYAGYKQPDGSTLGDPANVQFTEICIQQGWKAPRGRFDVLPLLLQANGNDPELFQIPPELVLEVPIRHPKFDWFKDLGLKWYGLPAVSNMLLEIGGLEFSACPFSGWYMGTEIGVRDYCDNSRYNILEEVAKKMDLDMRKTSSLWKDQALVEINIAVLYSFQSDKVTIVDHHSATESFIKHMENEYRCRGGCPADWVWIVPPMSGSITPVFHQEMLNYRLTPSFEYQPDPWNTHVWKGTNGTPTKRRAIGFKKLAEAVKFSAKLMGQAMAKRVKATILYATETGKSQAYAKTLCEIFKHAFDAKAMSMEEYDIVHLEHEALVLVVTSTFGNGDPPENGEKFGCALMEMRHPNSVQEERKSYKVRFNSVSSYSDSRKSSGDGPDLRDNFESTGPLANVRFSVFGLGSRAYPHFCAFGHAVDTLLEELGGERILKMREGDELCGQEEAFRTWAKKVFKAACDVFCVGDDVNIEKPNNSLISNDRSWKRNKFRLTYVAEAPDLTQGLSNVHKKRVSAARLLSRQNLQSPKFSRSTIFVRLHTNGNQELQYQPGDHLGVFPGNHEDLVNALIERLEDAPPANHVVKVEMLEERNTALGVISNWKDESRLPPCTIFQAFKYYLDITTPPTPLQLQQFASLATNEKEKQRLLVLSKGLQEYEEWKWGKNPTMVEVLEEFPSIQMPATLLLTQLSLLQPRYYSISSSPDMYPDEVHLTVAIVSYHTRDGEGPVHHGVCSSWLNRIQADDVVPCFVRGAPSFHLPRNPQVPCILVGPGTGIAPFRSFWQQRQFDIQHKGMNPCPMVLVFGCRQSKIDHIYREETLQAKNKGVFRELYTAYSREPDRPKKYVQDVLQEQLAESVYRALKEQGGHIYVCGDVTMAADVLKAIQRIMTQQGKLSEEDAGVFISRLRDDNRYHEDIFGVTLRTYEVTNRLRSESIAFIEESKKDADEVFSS

One may read the IC50 as the concentration that inhibits the measured activity by half. On to `CC(=N)NCCCC(C)(N)C(=O)O` (stereo not shown) [Example 1], for which the IC50 in assay [1] was determined as 73.5 µM; in assay [2], 34.9 µM; in assay [3], 356 µM; with RAW 264.7 cells, 25 µM.
Consider `CC(=N)NCCCCC(N)(CO)C(=O)O` (racemic) [Example 4], for which the inhibition at 10 µM is 39% in assay [1] (@ 10 µM, read-out: hiNos Inh.); 39% in assay [2] (@ 10 µM, read-out: miNOS Inh.); 8.6% in assay [3] (@ 10 µM, read-out: rnNOS Inh.); 8.6% with RAW 264.7 cells (@ 10 µM, read-out: Raw Cell Inh.).
As for `CC(=N)NCCCCC(C)(N)C(=O)O` (racemic) [Example 2], the IC50 in assay [1] came out at 26.6 µM; in assay [2], 7.2 µM; in assay [3] it was 193 µM; with RAW 264.7 cells, 52.5 µM.
As to `CC(=N)NCC[Se]CC(N)C(=O)O` (racemic) [Example 3, Nε-iminoethyl-aminoethylselenocysteine], the IC50 in assay [1] was 35.5 µM; in assay [2], 5 µM; in assay [3] it was 229 µM; in the assay on RAW 264.7 cells, 0.37 µM.

These data come from EP0751930B1 (G.D. SEARLE & CO., priority 1994, dated 1995).
